# Measured values from ChEMBL document CHEMBL1156482, “Molecular mechanism of action of monocyclam versus bicyclam non-peptide antagonists in the CXCR4 chemokine receptor” (J Biol Chem, 2007).
# Columns and labels:
# [1] = system: C-X-C chemokine receptor type 4 (Homo sapiens), P61073 [D182A]; test: (§1) Displacement of [125I]12G5 antibody from extracellular loop 2 of human CXCR4 D182A mutant expressed in COS7 cells; assay type: cell-based; settings: COS-7
# [2] = biological target: C-X-C chemokine receptor type 4 (Homo sapiens, UniProt P61073, D182A); test: as §1; assay type: cell-based, COS-7
# C-X-C chemokine receptor type 4 (Homo sapiens, UniProt P61073, D182A), sequence (P61073 whole entry D182A): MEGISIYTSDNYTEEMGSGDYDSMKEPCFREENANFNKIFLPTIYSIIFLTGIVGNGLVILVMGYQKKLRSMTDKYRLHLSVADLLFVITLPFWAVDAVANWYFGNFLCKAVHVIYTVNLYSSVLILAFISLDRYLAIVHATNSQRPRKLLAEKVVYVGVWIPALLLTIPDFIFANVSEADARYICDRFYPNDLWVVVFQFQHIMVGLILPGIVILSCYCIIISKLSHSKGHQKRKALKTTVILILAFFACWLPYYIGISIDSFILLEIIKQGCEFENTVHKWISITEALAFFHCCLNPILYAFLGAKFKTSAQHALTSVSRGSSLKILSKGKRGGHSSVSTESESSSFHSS
# [3] = system: Human immunodeficiency virus 1; test: Antiviral activity against HIV1 NDK infected in U87.CD4 cells expressing human CXCR4 D171ND262N mutant; assay type: functional, organism-based; settings: Human immunodeficiency virus 1, NDK
# [4] = biological target: C-X-C chemokine receptor type 4 (Homo sapiens, UniProt P61073); test: Displacement of [125I]12G5 antibody from human wild type CXCR4 expressed in COS7 cells; assay type: cell-based, COS-7
# C-X-C chemokine receptor type 4 (Homo sapiens, UniProt P61073), sequence (P61073 whole entry): as the sequence (P61073 whole entry D182A) above, with A182D counted along it
# [5] = system: Human immunodeficiency virus 1; test: Antiviral activity against HIV1 NDK infected in U87.CD4 cells expressing human CXCR4 E288A mutant; assay type: functional, organism-based; settings: Human immunodeficiency virus 1, NDK
# [6] = biological target: T1, C-X-C chemokine receptor type 4 (Homo sapiens, UniProt P61073, E288A); test: (§2) Displacement of [125I]12G5 antibody from transmembrane domain 7 of human CXCR4 E288A mutant expressed in COS7 cells; assay type: cell-based, COS-7
# T1 sequence (P61073 whole entry E288A, the tested form may be a part): as the sequence (P61073 whole entry D182A) above, with A182D, E288A counted along it
# [7] = system: C-X-C chemokine receptor type 4 (Homo sapiens), P61073 [E288A]; test: as §2; assay type: cell-based; settings: COS-7
# C-X-C chemokine receptor type 4 (Homo sapiens), P61073 [E288A], sequence (P61073 whole entry E288A, the tested form may be a part): as the sequence (P61073 whole entry D182A) above, with A182D, E288A counted along it
# [8] = system: C-X-C chemokine receptor type 4 (Homo sapiens), P61073 [H113A]; test: (§3) Displacement of [125I]12G5 antibody from transmembrane domain 3 of human CXCR4 H113A mutant expressed in COS7 cells; assay type: cell-based; settings: COS-7
# C-X-C chemokine receptor type 4 (Homo sapiens), P61073 [H113A], sequence (P61073 whole entry H113A, the tested form may be a part): as the sequence (P61073 whole entry D182A) above, with H113A, A182D counted along it
# [9] = biological target: C-X-C chemokine receptor type 4 (Homo sapiens, UniProt P61073, H113A); test: as §3; assay type: cell-based, COS-7
# C-X-C chemokine receptor type 4 (Homo sapiens, UniProt P61073, H113A), sequence (P61073 whole entry H113A): as the sequence (P61073 whole entry D182A) above, with H113A, A182D counted along it
# [10] = biological target: C-X-C chemokine receptor type 4 (Homo sapiens, UniProt P61073, Q200A); test: (§4) Antagonist activity at human CXCR4 Q200A mutant expressed in COS7 cells coexpressing G protein Gqi4myr assessed as inhibition of CXCL12-induced phosphatidylinositol turnover; assay type: functional, cell-based, COS-7
# C-X-C chemokine receptor type 4 (Homo sapiens, UniProt P61073, Q200A), sequence (P61073 whole entry Q200A): as the sequence (P61073 whole entry D182A) above, with A182D, Q200A counted along it
# [11] = system: C-X-C chemokine receptor type 4 (Homo sapiens), P61073 [Q200A]; test: as §4; assay type: functional, cell-based; settings: COS-7
# C-X-C chemokine receptor type 4 (Homo sapiens), P61073 [Q200A], sequence (P61073 whole entry Q200A): as the sequence (P61073 whole entry D182A) above, with A182D, Q200A counted along it
# [12] = system: Human immunodeficiency virus 1; test: Antiviral activity against HIV1 NL43 infected in U87.CD4 cells expressing human wild type CXCR4; assay type: functional, organism-based; settings: Human immunodeficiency virus 1, NL43, U87.CD4
# [13] = biological target: C-X-C chemokine receptor type 4 (Homo sapiens, UniProt P61073, Q200W); test: (§5) Antagonist activity at human CXCR4 Q200W mutant expressed in COS7 cells coexpressing G protein Gqi4myr assessed as inhibition of CXCL12-induced phosphatidylinositol turnover; assay type: functional, cell-based, COS-7
# C-X-C chemokine receptor type 4 (Homo sapiens, UniProt P61073, Q200W), sequence (P61073 whole entry Q200W): as the sequence (P61073 whole entry D182A) above, with A182D, Q200W counted along it
# [14] = system: C-X-C chemokine receptor type 4 (Homo sapiens), P61073 [Q200W]; test: as §5; assay type: functional, cell-based; settings: COS-7
# C-X-C chemokine receptor type 4 (Homo sapiens), P61073 [Q200W], sequence (P61073 whole entry Q200W): as the sequence (P61073 whole entry D182A) above, with A182D, Q200W counted along it
# [15] = biological target: T1, C-X-C chemokine receptor type 4; test: (§6) Antagonist activity at human CXCR4 E288A mutant expressed in COS7 cells coexpressing G protein Gqi4myr assessed as inhibition of CXCL12-induced phosphatidylinositol turnover; assay type: functional, cell-based, COS-7
# [16] = system: C-X-C chemokine receptor type 4 (Homo sapiens), P61073 [E288A]; test: as §6; assay type: functional, cell-based; settings: COS-7
# C-X-C chemokine receptor type 4 (Homo sapiens), P61073 [D182A], sequence (P61073 whole entry D182A): as the sequence (P61073 whole entry D182A) above
smiles,measurement,setting,value
c1ccc(CNCc2ccc(CN3CCCNCCNCCCNCC3)cc2)nc1,logKi,[1],-7.44
same,Ki,[2],40 nM
same,IC50,[3],4640 nM
same,Ki,[4],110 nM
same,logKi,[4]; COS-7,-6.95
same,IC50,[5],> 5500 nM
same,Ki,[6],11000 nM
same,logKi,[7],-4.94
same,logKi,[8],-5.6
same,Ki,[9],2500 nM
same,Ki,[10],150 nM
same,logIC50,[11],-6.84
same,IC50,[12],36000 nM
same,Ki,[13],220 nM
same,logIC50,[14],-6.65
same,Ki,[15],1900 nM
same,logIC50,[16],-5.17
